# Results published in US4351763A, “Pharmacologically active peptides” (Eli Lilly and Company, priority 1981, dated 1982).
# Where a SMILES comes first, the peptide text is derived from it. [ ]: non-standard residue; d: D form. Phe(4-F) = N[C@@H](Cc1ccc(F)cc1)C(=O)O; NMeM = CN[C@@H](CCSC)C(=O)O
# System: mouse
# Assay: mouse hot plate test (analgesic activity)
# Type: in vivo
# Conditions: hot plate 52° C., 15 minutes after administration, latency until jump
# Experimental: In this test, a mouse is placed inside an upright acrylic cylinder comprising, as its base, a hot plate surface which is maintained at 52° C. The mouse is given, orally or by subcutaneous injection, a predetermined amount of test compound dissolved or suspended in a suitable carrier, and, 15 minutes after administration of the test compound, the mouse is placed on the hot plate surface. The latency in seconds until the mouse jumps from the hot plate surface is measured. […] This must occur in a dose range which produces no motor incoordination or incapacitation. The following Table records the ED50 results obtained from this test.
row,SMILES,"Analgesic Activity, Hot Plate Test ED50, mg./kg., subcutaneous [mg/kg]"
1,"CSCC[C@@H](C(N)=O)N(C)C(=O)[C@H](Cc1ccc(F)cc1)NC(=O)CNC(=O)[C@@H](C)NC(=O)[C@@H](N)Cc1ccc(O)cc1 [Example 1, L-Tyrosyl-D-alanylglycyl-L-p-fluorophenylalanyl-L-(N^α -methyl)methioninamide]",0.023
2,"COc1ccc([C@H](NC(=O)[C@H](Cc2ccc(F)cc2)NC(=O)CNC(=O)[C@@H](C)NC(=O)[C@@H](N)Cc2ccc(O)cc2)C(N)=O)cc1 [Example 2, L-Tyrosyl-D-alanylglycyl-L-p-fluorophenylalanyl-L-p-methoxyphenylglycinamide]",1.04
3,"C[C@@H](NC(=O)[C@@H](N)Cc1ccc(O)cc1)C(=O)NCC(=O)N[C@@H](Cc1ccc(F)cc1)C(=O)N[C@@H](C(N)=O)c1ccccc1 [Example 3 D-Pgl, L-Tyrosyl-D-alanyl-glycyl-L-p-fluorophenylalanyl-D-phenylglycinamide]",0.103
4,"C[C@@H](NC(=O)[C@@H](N)Cc1ccc(O)cc1)C(=O)NCC(=O)N[C@@H](Cc1ccc(F)cc1)C(=O)N[C@H](C(N)=O)c1ccccc1 [Example 3 L-Pgl, L-Tyrosyl-D-alanyl-glycyl-L-p-fluorophenylalanyl-L-phenylglycinamide]",0.063
5,"CSCC[C@@H](C(N)=O)N(C)C(=O)[C@H](Cc1ccc(F)cc1)NC(=O)CNC(=O)[C@H](NC(=O)[C@@H](N)Cc1ccc(O)cc1)[C@H](C)O [Example 4, L-Tyrosyl-D-threonylglycyl-L-p-fluorophenylalanyl-L-(N^α -methyl)methioninamide] (H-Y[dT]G[Phe(4-F)][NMeM]-NH2)",0.088
